{
  "source": "ChEMBL document CHEMBL5360640",
  "about": "“Liquiritigenin Confers Liver Protection by Enhancing NRF2 Signaling through Both Canonical and Non-canonical Signaling Pathways” (2023)",
  "key": {"[1]": {"system": "Mus musculus", "assay": "Hepatoprotective activity against cisplatin induced liver injury […] mouse model assessed as reduction of MDA in liver tissue at 40 mg/kg, ip administered every 24 hrs for 72 hrs", "assay_type": "functional, organism-based"}, "[2]": {"system": "BNL CL.2", "assay": "Inhibition of autophagy in mouse BNL CL.2 cells assessed as suppression of autophagosome formation by measuring reduction in yellow puncta incubated upto 80 uM for 24 hrs by immuno fluoroscence analysis", "assay_type": "functional, cell-based"}, "[3]": {"system": "Mus musculus", "assay": "Hepatoprotective activity against cisplatin induced liver injury […] mouse model assessed as no change in liver to body weight ratio at 40 mg/kg, ip administered every 24 hrs for 72 hrs", "assay_type": "functional, organism-based"}, "[4]": {"biological_target": "T1, Nuclear factor erythroid 2-related factor 2 (Mus musculus) (UniProt Q60795)", "T1 sequence (whole entry)": "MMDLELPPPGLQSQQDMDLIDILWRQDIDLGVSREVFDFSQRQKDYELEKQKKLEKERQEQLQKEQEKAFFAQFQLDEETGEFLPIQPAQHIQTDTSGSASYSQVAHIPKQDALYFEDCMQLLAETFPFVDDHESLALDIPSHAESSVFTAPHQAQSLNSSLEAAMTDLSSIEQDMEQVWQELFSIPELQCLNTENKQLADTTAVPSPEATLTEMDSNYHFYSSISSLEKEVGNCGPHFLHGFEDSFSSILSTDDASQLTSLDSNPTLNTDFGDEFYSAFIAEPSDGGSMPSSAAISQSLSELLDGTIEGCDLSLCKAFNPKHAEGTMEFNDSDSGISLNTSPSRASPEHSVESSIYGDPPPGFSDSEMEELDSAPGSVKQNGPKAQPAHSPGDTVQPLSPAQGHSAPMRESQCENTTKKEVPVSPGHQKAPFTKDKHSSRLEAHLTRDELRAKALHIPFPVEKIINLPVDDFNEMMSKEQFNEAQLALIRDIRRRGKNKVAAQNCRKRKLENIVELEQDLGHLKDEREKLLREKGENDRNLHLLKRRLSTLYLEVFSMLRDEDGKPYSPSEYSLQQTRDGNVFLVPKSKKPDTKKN", "assay": "Ubiquitination activity in Flag-tagged NRF2 in mouse BNL CL.2 cells at 40 uM for 24 hrs followed by MG132 treatment for 4 hrs by immunoprecipitation assay", "assay_type": "cell-based"}, "[5]": {"system": "Mus musculus", "assay": "Hepatoprotective activity against cisplatin induced liver injury […] mouse model assessed as reduction of […] in liver tissue at 40 mg/kg, ip administered every 24 hrs for 72 hrs", "assay_type": "functional, organism-based"}, "[6]": {"system": "BNL CL.2", "assay": "Upregulation of HIPK4 mRNA expression in mouse […] cells", "assay_type": "functional, cell-based"}, "[7]": {"system": "BNL CL.2", "assay": "Upregulation of ARSG mRNA expression in mouse […] CL.2 cells", "assay_type": "functional, cell-based"}, "[8]": {"system": "BNL CL.2", "assay": "Upregulation of OAS1 mRNA expression in mouse […] cells", "assay_type": "functional, cell-based"}, "[9]": {"system": "Mus musculus", "assay": "Hepatoprotective activity against cisplatin induced liver injury […] mouse model assessed as rescue of hepatocellular edema at 40 mg/kg, ip administered every 24 hrs for 72 hrs", "assay_type": "functional, organism-based"}, "[10]": {"system": "BNL CL.2", "assay": "Effect of ROS generation in cisplatin induced hepatotoxicity in mouse BNL CL.2 cells assessed as increase in ROS level treated at 40 uM for 24 hrs (reference value: 83%)", "assay_type": "functional"}, "[11]": {"system": "BNL CL.2", "assay": "Inhibition of autophagy in mouse BNL CL.2 cells assessed as decrease in LC3-II level incubated upto 80 uM for 24 hrs by immunoblotting analysis", "assay_type": "functional, cell-based"}, "[12]": {"system": "BNL CL.2", "assay": "Effect of ROS generation in cisplatin induced hepatotoxicity in mouse BNL CL.2 NRF2 knockout cells assessed as increase in ROS level treated at 40 uM for 24 hrs", "assay_type": "functional, cell-based"}, "[13]": {"system": "BNL CL.2", "assay": "Effect of ROS generation in mouse BNL CL.2 cells incubated at 40 uM for 24 hrs (reference value: 9.42%)", "assay_type": "functional"}, "[14]": {"biological_target": "T1, Nuclear factor erythroid 2-related factor 2 (Mus musculus)", "assay": "Activation of NRF2 in mouse BNL CL.2 cells assessed as increase in Akr1c1 gene level upto 40 uM incubated upto 24 hrs by rt-qPCR analysis", "assay_type": "cell-based", "settings": "filed as activator"}, "[15]": {"biological_target": "Kelch-like ECH-associated protein 1/Nuclear factor erythroid 2-related factor 2 (Mus musculus) (UniProt Q60795+Q9Z2X8)", "sequence (Q9Z2X8 whole entry, looked up, one chain of several)": "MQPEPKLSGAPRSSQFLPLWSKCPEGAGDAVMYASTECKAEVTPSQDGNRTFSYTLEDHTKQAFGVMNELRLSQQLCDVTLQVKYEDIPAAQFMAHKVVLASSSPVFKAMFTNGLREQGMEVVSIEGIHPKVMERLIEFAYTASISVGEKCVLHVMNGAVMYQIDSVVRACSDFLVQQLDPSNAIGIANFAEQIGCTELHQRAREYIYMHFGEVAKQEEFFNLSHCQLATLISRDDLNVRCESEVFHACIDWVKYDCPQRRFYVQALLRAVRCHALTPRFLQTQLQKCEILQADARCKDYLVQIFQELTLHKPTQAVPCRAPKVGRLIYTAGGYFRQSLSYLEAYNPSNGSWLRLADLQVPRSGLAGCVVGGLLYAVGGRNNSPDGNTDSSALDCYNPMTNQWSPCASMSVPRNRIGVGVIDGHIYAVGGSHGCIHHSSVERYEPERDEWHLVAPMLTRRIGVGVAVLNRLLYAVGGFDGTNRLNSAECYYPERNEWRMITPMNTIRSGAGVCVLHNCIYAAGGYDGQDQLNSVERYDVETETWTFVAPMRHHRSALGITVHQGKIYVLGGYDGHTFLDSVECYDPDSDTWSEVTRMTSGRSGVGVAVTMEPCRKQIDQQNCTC", "assay": "Inhibition of in flag-tagged NRF2/wildtype His-tagged KEAP1 in mouse BNL CL.2 cells and protein-protein interaction at 40 uM for 24 hrs followed by treatment with MG132 for 4 hrs by immunoblot assay", "assay_type": "cell-based", "settings": "filed as activator"}, "[16]": {"system": "BNL CL.2", "assay": "Inhibition of autophagy in mouse BNL CL.2 cells assessed as suppression of autolysosome formation by measuring reduction in red puncta incubated upto 80 uM for 24 hrs by immuno fluoroscence analysis", "assay_type": "functional, cell-based"}, "[17]": {"system": "BNL CL.2", "assay": "Effect of ROS generation in mouse BNL CL.2 cells incubated at 20 uM for 24 hrs (reference value: 9.42%)", "assay_type": "functional"}, "[18]": {"biological_target": "T1, Nuclear factor erythroid 2-related factor 2 (Mus musculus)", "assay": "Activation of NRF2 in mouse BNL CL.2 cells assessed as increase in Gclm gene level upto 40 uM incubated upto 24 hrs by rt-qPCR analysis", "assay_type": "cell-based", "settings": "filed as activator"}, "[19]": {"system": "BNL CL.2", "assay": "Effect on p62 level in mouse BNL CL.2 NRF2 knockout cells assessed as increase in protein level treated at 40 uM for 24 hrs by immunoblot analysis", "assay_type": "functional, cell-based"}, "[20]": {"system": "BNL CL.2", "assay": "Effect of ROS generation in mouse BNL CL.2 cells assessed as increase in ROS level treated at 40 uM for 24 hrs (reference value: 8.04%)", "assay_type": "functional"}, "[21]": {"biological_target": "T2, Nuclear factor erythroid 2-related factor 2 (Homo sapiens) (UniProt Q16236)", "T2 sequence (whole entry)": "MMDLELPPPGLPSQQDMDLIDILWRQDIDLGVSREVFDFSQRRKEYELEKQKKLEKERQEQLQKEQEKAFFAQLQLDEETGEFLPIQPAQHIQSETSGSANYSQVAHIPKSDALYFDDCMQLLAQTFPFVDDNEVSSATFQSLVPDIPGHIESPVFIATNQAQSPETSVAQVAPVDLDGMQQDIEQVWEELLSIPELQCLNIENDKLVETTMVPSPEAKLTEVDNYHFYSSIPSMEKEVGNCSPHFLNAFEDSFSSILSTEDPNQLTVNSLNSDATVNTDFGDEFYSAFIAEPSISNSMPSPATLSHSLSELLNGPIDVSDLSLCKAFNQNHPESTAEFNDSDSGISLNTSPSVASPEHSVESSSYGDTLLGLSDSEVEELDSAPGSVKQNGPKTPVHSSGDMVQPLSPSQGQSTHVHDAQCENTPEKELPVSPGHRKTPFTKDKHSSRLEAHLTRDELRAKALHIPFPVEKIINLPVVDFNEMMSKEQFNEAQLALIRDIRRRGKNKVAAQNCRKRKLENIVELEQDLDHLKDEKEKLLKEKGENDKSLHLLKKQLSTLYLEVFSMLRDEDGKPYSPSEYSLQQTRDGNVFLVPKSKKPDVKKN", "assay": "Activation of NRF2 in human HepG2 cells treated for 8 to 24 hrs by immunoblot analysis", "assay_type": "cell-based", "settings": "filed as activator, dose 10-40 µM, time 8-24 hrs"}, "[22]": {"system": "BNL CL.2", "assay": "Effect of ROS generation in cisplatin induced hepatotoxicity in mouse BNL CL.2 NRF2 cells assessed as increase in ROS level treated at 40 uM for 24 hrs", "assay_type": "functional, cell-based"}, "[23]": {"system": "Mus musculus", "assay": "Hepatoprotective activity against cisplatin induced liver injury […] mouse model assessed as rescue of disorder arrangement of hepatic cord at 40 mg/kg, ip administered every 24 hrs for 72 hrs", "assay_type": "functional, organism-based"}},
  "note": "Calls of active or inactive are those of the source. The calls are words filed in the database; no cut-off is given here.",
  "data": [
    {"molecule": "O=C1C[C@@H](c2ccc(O)cc2)Oc2cc(O)ccc21", "note": "[LIQUIRTIGENIN]", "values": [
      {"measurement": "Activity", "setting": "[1]", "result": "Active"},
      {"measurement": "inhibition", "setting": "[2]", "result": "Active"},
      {"measurement": "Activity", "setting": "[3]", "result": "Active"},
      {"measurement": "Activity", "setting": "[4]", "result": "inactive"},
      {"measurement": "Activity", "setting": "[5]", "result": "Active"},
      {"measurement": "Activity", "setting": "[6]", "result": "Active"},
      {"measurement": "Activity", "setting": "[7]", "result": "Active"},
      {"measurement": "Activity", "setting": "[8]", "result": "Active"},
      {"measurement": "Activity", "setting": "[9]", "result": "Active"},
      {"measurement": "Activity", "setting": "[10]", "result": 76, "unit": "%"},
      {"measurement": "inhibition", "setting": "[11]", "result": "Active"},
      {"measurement": "Activity", "setting": "[12]", "result": "Active"},
      {"measurement": "Activity", "setting": "[13]", "result": 4.52, "unit": "%"},
      {"measurement": "Activity", "setting": "[14]", "result": "Active"},
      {"measurement": "inhibition", "setting": "[15]", "result": "Active"},
      {"measurement": "inhibition", "setting": "[16]", "result": "Active"},
      {"measurement": "Activity", "setting": "[17]", "result": 9.34, "unit": "%"},
      {"measurement": "Activity", "setting": "[18]", "result": "Active"},
      {"measurement": "Activity", "setting": "[19]", "result": "Active"},
      {"measurement": "Activity", "setting": "[20]", "result": 2.26, "unit": "%"},
      {"measurement": "Activity", "setting": "[21]", "result": "Dose-Dependent Effect"},
      {"measurement": "Activity", "setting": "[22]", "result": "Active"},
      {"measurement": "Activity", "setting": "[23]", "result": "Active"}
    ]}
  ]
}
